What was measured:
[1] = biological target: E3 ubiquitin-protein ligase XIAP (Homo sapiens, UniProt P98170)
Description: Binding affinity to N-terminal 6xHis-tagged human cloned XIAP BIR3 domain expressed in Escherichia coli BL21 (DE3) by fluorescence polarization-based competitive binding assay

MDA-MB-231 [2] = assay: Induction of apoptosis in human MDA-MB-231 cells assessed as early apoptotic cells at 30 nM after 48 hrs using annexin V-propidium iodide staining by flow cytometry; type: functional
MDA-MB-231 [3] = assay: Induction of apoptosis in human MDA-MB-231 cells assessed as late apoptotic cells at 30 nM after 48 hrs using annexin V-propidium iodide staining by flow cytometry; type: functional
MDA-MB-231 [4] = assay: Induction of apoptosis in human MDA-MB-231 cells assessed as early apoptotic cells at 100 nM after 48 hrs using annexin V-propidium iodide staining by flow cytometry; type: functional
SK-OV-3 = assay: Growth inhibition of human SKOV3 cells after 4 days by WST8 assay; type: functional, cell-based; conditions: SK-OV-3, 96 h
MDA-MB-231 [5] = assay: Induction of apoptosis in human MDA-MB-231 cells assessed as early apoptotic cells at 1 uM after 48 hrs using annexin V-propidium iodide staining by flow cytometry; type: functional
MDA-MB-231 [6] = assay: Induction of apoptosis in human MDA-MB-231 cells assessed as late apoptotic cells at 1 uM after 48 hrs using annexin V-propidium iodide staining by flow cytometry; type: functional
MDA-MB-231 [7] = assay: Induction of apoptosis in human MDA-MB-231 cells assessed as late apoptotic cells at 100 nM after 48 hrs using annexin V-propidium iodide staining by flow cytometry; type: functional
MDA-MB-231 [8] = assay: cells; conditions: Homo sapiens, MDA-MB-231, 96 h
Description: Growth inhibition of human MDA-MB-231 cells after 4 days by WST-8 assay

Sequence of E3 ubiquitin-protein ligase XIAP (P98170 whole entry): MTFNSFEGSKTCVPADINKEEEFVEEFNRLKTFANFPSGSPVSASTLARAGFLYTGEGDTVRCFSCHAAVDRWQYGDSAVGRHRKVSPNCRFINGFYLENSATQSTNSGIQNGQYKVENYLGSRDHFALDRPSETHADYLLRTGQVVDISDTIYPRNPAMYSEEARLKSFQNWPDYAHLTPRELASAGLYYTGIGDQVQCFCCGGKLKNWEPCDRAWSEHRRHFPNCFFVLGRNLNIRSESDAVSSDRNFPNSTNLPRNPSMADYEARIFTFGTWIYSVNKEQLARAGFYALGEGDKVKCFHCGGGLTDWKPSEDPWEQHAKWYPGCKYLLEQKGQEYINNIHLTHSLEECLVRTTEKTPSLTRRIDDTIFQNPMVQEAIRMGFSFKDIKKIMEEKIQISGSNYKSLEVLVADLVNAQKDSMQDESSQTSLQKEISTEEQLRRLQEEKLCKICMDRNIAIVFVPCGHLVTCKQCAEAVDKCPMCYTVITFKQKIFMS

CCC[C@H](N)C(=O)N[C@H]1CC[C@H]2CC[C@@H](C(=O)NCc3ccccc3)N2C1
Ki [1]: > 100000 nM

CC[C@@H](C(=O)N[C@H]1CCCC[C@H]2CC[C@@H](C(=O)NC(c3ccccc3)c3ccccc3)N2C1=O)N1CCOCC1
Ki [1]: 32900 nM

C[C@H](N)C(=O)N[C@H]1CCCC[C@H]2CC[C@@H](C(=O)NCc3ccccc3)N2C1=O
Ki [1]: 100 nM

CN[C@@H](C)C(=O)N[C@H]1CCCC[C@H]2CC[C@@H](C(=O)NC(c3ccccc3)c3ccccc3)N2C1=O
Activity (MDA-MB-231 [2]): 13% | Activity (MDA-MB-231 [3]): 2% | Activity (MDA-MB-231 [4]): 29% | IC50 (SK-OV-3): 900 nM | Activity (MDA-MB-231 [5]): 39% | Activity (MDA-MB-231 [6]): 8% | Activity (MDA-MB-231 [7]): 10%

C[C@H](O)C(=O)N[C@H]1CCCC[C@H]2CC[C@@H](C(=O)NC(c3ccccc3)c3ccccc3)N2C1=O
Ki [1]: 13000 nM | IC50 (MDA-MB-231 [8]): 7 µM | IC50 (SK-OV-3): > 10000 nM

C[C@H](N)C(=O)N[C@H]1CCC[C@H]2CC[C@@H](C(=O)NC(c3ccccc3)c3ccccc3)N2C1=O
Ki [1]: 60 nM

CC[C@H](N)C(=O)N[C@H]1CCCC[C@H]2CC[C@@H](C(=O)NC(c3ccccc3)c3ccccc3)N2C1=O
Ki [1]: 39 nM | IC50 (MDA-MB-231 [8]): 8 µM | IC50 (SK-OV-3): > 10000 nM

CC[C@H](NC)C(=O)N[C@H]1CCCC[C@H]2CC[C@@H](C(=O)NC(c3ccccc3)c3ccccc3)N2C1=O
Activity (MDA-MB-231 [2]): 13% | Activity (MDA-MB-231 [3]): 3% | Activity (MDA-MB-231 [4]): 20% | IC50 (MDA-MB-231 [8]): 0.41 µM | IC50 (SK-OV-3): 1000 nM | Activity (MDA-MB-231 [5]): 29% | Activity (MDA-MB-231 [6]): 8% | Activity (MDA-MB-231 [7]): 3%

CC[C@H](O)C(=O)N[C@H]1CCC[C@H]2CC[C@@H](C(=O)NC(c3ccccc3)c3ccccc3)N2C1=O
Ki [1]: 29000 nM

CC[C@H](N)C(=O)N[C@H]1CCCC[C@H]2CC[C@@H](C(=O)N[C@@H](c3ccccc3)c3ccc4ccccc4c3)N2C1=O
Ki [1]: 47 nM

CC[C@H](N)C(=O)N[C@H]1CCCC[C@H]2CC[C@@H](C(=O)N[C@H](c3ccccc3)c3ccc4ccccc4c3)N2C1=O
Ki [1]: 759 nM

From ChEMBL document CHEMBL1152291, “Structure-based design, synthesis, evaluation, and crystallographic studies of conformationally constrained Smac mimetics as inhibitors of the X-linked inhibitor of apoptosis protein (XIAP)” (J Med Chem, 2008)
